Source: patent US9000188B2, “Monocyclic cyanoenones and methods of use thereof” (Trustees of Dartmouth College, priority 2008, dated 2015)
Entries after “also recorded” stand apart in the source; their conditions may differ.

Columns and labels:
[1] = tested on: IFNγ-induced NO production in RAW cells; test: iNOS assay: inhibition of NO production in RAW cells stimulated by interferon-γ; type: cell-based; conditions: for IC50: Suppression of IFNγ-induced NO production, 24 h, Griess reaction, average of two experiments, read-out: RAW (10 ng/ml IFNγ) IC50
Protocol: (§1) Compounds of the present disclosure have been tested for inhibition of nitric oxide (NO) production in RAW cells stimulated by interferon-γ (iNOS assay) and induction of NAD(P)H-quinone oxidoreductase in Hepa1c1c7 cells (NQO1 assay), both assay systems we have previously employed. At the same time, CDDO and TBE-31 were tested as a positive controls in the same assays. […] The potency in the iNOS assay is more than CDDO (pentacycle), whose methyl ester is currently evaluated in Phase II clinical trials as an anti-inflammatory drug. Also the potency correlates to their reactivity as Michael acceptors based on the above-summarized UV studies.
For the iNOS assay, RAW cells were treated with various concentrations of compounds and interferon-γ (10 ng/mL) for 24 h. Supernatants were analyzed for nitric oxide (NO) by the Griess reaction. IC50 values are an average of two separate experiments.

Keap1 = Keap1 (Mus musculus, UniProt Q9Z2X8); test: UV studies with Keap1; conditions: thiol-rich protein
Sequence of Keap1 (Q9Z2X8 whole entry): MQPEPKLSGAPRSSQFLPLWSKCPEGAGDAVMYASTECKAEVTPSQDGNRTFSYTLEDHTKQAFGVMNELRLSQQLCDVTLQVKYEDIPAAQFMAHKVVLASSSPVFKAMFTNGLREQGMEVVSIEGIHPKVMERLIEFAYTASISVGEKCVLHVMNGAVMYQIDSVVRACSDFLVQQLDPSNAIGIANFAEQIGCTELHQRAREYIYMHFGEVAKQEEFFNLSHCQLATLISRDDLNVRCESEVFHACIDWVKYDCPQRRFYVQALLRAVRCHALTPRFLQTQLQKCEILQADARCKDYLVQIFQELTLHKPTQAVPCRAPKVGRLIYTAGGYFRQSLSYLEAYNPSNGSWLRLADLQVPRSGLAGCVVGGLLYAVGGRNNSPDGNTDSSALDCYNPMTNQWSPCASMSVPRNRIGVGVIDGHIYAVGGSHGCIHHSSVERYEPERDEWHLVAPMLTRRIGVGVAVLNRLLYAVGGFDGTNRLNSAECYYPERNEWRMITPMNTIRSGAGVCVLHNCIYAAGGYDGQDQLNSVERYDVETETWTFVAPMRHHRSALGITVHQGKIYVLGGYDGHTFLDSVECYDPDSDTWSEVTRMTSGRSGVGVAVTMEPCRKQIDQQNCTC
Excerpt: Keap1 is an electrophile sensor in the cellular Keap1-Nrf2-antioxidant response elements (ARE) phase II response pathway that regulates the transcription of genes for cytoprotective enzymes such as HO-1 and NQO1.

[2] = tested on: NAD(P)H-quinone oxidoreductase in Hepa1c1c7 cells; test: NQO1 assay: induction of NAD(P)H-quinone oxidoreductase in Hepa1c1c7 cells; type: cell-based
Protocol: Novel monocyclic cyano enones (MCEs) were synthesized and their Michael reactivity and biological activity were tested in order to identify useful fragments for drug discovery. […] MCE-1 gives reversible and selective Michael adducts with thiol nucleophiles.
as §1

[3] = tested on: IFNγ-induced NO production in RAW cells; conditions: RAW cells stimulated by interferon-γ; cited from earlier work
[4] = tested on: aflatoxin-induced liver cancer; conditions: rats, orally active; cited from earlier work

Compound | IC50 [1] | potency in the NQO1 assay (in words) [2] | also measured
CC1(C)C=CC(=O)C(C#N)=C1 [MCE-2, reference compound] | 380 nM |  | 
C=CC1(C)C=CC(=O)C(C#N)=C1 (stereo not shown) [MCE-15, 3-methyl-6-oxo-3-vinyl-cyclohexa-1,4-dienecarbonitrile] | 300 nM |  | 
CC1(C)CC[C@]2(C(=O)O)CC[C@]3(C)[C@H](C(=O)C=C4[C@@]5(C)C=C(C#N)C(=O)C(C)(C)[C@@H]5CC[C@]43C)[C@@H]2C1 [CDDO, 2-cyano-3,12-diooxooleana-1,9(11)-dien-28-oic acid, reference compound] | 20 nM |  | 
C#CC1(C)C=CC(=O)C(C#N)=C1 (stereo not shown) [MCE-1, 3-Ethynyl-3-methyl-6-oxocyclohexa-1,4-dienecarbonitrile] | 8 nM | highly potent; also recorded: highest potency amongst MCEs | reactivity with Keap1 (UV) (Keap1): highest reactivity; potency in the iNOS assay (in words) ([1]; RAW cells stimulated by interferon-γ): highly potent; also recorded: higher than CDDO; also recorded: highest potency amongst MCEs
C#C[C@]12C=C(C#N)C(=O)C=C1[C@@]1(C)CCC(=O)C(C)(C)[C@@H]1CC2 [MCE-7] | > 300 nM | less potent than MCE-1 | activity in the iNOS assay ([1]; at a concentration of 300 nM): inactive
C#CC12C=C(C#N)C(=O)C=C1[C@@]1(C)C=C(C#N)C(=O)C(C)(C)[C@@H]1CC2 (stereo partly shown) [TBE-31] | 1 nM |  | inhibition of NO production (iNOS assay), literature [3]: low nanomolecular concentrations; potency against aflatoxin-induced liver cancer [4]: exceptionally potent
